Measured values: paper PMC10980656 (CNS Drugs, 2024)
Where a name gives a salt, the structure may show the parent alone. Read-outs that look alike come from different tables or passages of the source.

Key:
[1] = clinical; settings: both, human, in vivo; for AUC(0-t): AUC0–tz (geoMean); for Cmax: Cmax (geoMean), healthy subjects
[2] = test system: healthy women and men; settings: mild
[3] = cited from earlier work
[4] = repeated freeze/thaw cycles, short- (24 h) and long-term (30 day) storage; cited from earlier work
[5] = iv, 30 mg, plasma, single IV 30 mg fasudil over 30 min

Tmax ([1]; iv, 30 mg)	AUC(0-t) [1, 5]	Cmax [1, 5]	Tmax ([1]; po, 30 mg)	half-life ([1]; iv)	AUC(0-inf) ([1]; iv, 30 mg, AUC0–∞ (geoMean), plasma, single IV 30 mg fasudil over 30 min)	half-life ([1]; po, 30 mg)	AUC0–tz LS mean ratio (oral/IV treatment) point estimate (90% CI) (both, human, in vivo)	AUC0–∞ LS mean ratio (oral/IV treatment) point estimate (90% CI) (both, human, in vivo)	hydroxyfasudil concentration after oral treatment compared with IV treatment (linear mixed-effect model of the full analysis set)	Cmax LS mean ratio (oral/IV treatment) point estimate (90% CI) (linear mixed-effects model)	SMILES	subjects with TEAE assessed as related to the IMP ("headache") ([2]; IV treatment, one subject, recovered/resolved)	treatment emergent adverse events (TEAEs), oral treatment ([2]; oral fasudil, "fatigue", not related to the IMP)	serum half-life ([3]; after IV administration of fasudil)	exposure (AUC) ([3]; after IV applications (30 mg fasudil over 30 min))	exposure (AUC) ([3]; investigational oral solution, 40 mg fasudil hydrochloride)	sample stability (human plasma) [4]
22.5 min	55.6 ng·h/mL	101 ng/mL	15 min								O=S(=O)(c1cccc2cnccc12)N1CCCNCC1 [fasudil, fasudil hydrochloride, reference compound]	7.1%	One TEAE				
45 min	439 ng·h/mL	108 ng/mL	30 min	342 min	460 ng·h/mL	332 min	64.52 (60.32–69.01) %	64.76 (60.11–69.78) %	65%	102.97 (89.53–118.43) %	O=S(=O)(c1cccc2c(O)nccc12)N1CCCNCC1 [hydroxyfasudil]			100 to 200 min	400 to 555 ng·h/mL	300 ng·h/mL	> 94%
